Consider 17 compounds from ChEMBL document CHEMBL1141862, “Pyrimido-oxazepine as a versatile template for the development of inhibitors of specific kinases” (Bioorg Med Chem Lett, 2005).

Assay [1] deals with T1, Receptor-type tyrosine-protein kinase FLT3 (Homo sapiens, UniProt P36888).
T1 sequence (P36888 whole entry): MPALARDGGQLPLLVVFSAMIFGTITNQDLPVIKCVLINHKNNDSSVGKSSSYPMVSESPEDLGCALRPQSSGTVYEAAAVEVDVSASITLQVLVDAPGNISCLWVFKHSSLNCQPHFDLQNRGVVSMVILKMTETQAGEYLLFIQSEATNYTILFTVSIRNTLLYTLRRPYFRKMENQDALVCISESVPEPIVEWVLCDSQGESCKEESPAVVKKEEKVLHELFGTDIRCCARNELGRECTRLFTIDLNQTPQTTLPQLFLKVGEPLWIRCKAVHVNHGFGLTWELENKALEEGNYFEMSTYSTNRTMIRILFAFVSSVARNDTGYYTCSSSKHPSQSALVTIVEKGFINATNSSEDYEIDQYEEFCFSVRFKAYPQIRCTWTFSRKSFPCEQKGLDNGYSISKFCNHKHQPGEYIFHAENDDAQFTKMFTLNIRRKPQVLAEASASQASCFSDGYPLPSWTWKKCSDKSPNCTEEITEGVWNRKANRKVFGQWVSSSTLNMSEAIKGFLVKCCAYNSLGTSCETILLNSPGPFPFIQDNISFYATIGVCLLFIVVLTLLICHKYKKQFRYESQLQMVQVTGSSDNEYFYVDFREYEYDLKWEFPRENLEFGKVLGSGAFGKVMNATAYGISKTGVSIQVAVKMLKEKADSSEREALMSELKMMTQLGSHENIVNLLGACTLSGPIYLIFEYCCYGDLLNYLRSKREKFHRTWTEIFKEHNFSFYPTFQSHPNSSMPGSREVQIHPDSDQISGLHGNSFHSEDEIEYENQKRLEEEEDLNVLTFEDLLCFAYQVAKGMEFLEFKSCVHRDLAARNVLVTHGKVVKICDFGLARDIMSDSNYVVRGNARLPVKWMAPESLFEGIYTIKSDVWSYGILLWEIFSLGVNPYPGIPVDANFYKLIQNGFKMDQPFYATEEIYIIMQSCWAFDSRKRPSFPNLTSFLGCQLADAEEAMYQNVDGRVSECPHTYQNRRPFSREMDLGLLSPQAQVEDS
Put plainly: Inhibitory activity against FLT3 kinase in a HTRF assay. On the technique in general: Time-resolved FRET reads energy transfer from a long-lived donor to a nearby acceptor.

Assay [2] has as its target T2, Aurora kinase A (Homo sapiens, UniProt O14965).
T2 sequence (O14965 whole entry): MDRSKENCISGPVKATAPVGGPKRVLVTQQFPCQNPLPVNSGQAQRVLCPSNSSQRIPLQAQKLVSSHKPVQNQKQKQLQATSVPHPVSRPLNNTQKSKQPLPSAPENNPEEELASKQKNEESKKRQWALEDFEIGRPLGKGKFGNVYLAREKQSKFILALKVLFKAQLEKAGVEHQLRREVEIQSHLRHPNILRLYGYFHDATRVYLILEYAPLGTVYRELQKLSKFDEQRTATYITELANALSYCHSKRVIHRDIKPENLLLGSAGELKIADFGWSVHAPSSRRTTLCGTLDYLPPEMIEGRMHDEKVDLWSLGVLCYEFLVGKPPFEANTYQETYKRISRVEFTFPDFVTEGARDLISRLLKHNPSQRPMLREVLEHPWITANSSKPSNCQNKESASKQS
The assay can be described thus: Inhibitory activity against Aurora A kinase.

In assay [3] the target is Vascular endothelial growth factor receptor 2 (Homo sapiens, UniProt P35968). The assay can be described thus: Inhibitory activity against KDR.
Assay [4] concerns the target Hepatocyte growth factor receptor (Homo sapiens) (UniProt P08581). Put plainly: Inhibitory activity against c-Met at 25 uM.
The target of assay [5] is Vascular endothelial growth factor receptor 1 (Homo sapiens) (UniProt P17948). The assay can be described thus: Inhibitory activity against FLT1 at 25 uM.
In assay [6] the target is Fibroblast growth factor receptor 1 (Homo sapiens) (UniProt P11362). Put plainly: Inhibitory activity against FGF1R at 25 uM.
For assay [7], the target named is Insulin-like growth factor 1 receptor (Homo sapiens) (UniProt P08069). Put plainly: Inhibitory activity against IGF1R at 25 uM.
Assay [8] has as its target Epidermal growth factor receptor (Homo sapiens) (UniProt P00533). The assay can be described thus: Inhibitory activity against EGFR at 25 uM.
For assay [9], the target named is Insulin receptor (Homo sapiens, UniProt P06213). The assay can be described thus: Inhibitory activity against IR.
The target of assay [10] is T3, Cytoplasmic tyrosine-protein kinase BMX (Homo sapiens) (UniProt P51813).
T3 sequence (whole entry): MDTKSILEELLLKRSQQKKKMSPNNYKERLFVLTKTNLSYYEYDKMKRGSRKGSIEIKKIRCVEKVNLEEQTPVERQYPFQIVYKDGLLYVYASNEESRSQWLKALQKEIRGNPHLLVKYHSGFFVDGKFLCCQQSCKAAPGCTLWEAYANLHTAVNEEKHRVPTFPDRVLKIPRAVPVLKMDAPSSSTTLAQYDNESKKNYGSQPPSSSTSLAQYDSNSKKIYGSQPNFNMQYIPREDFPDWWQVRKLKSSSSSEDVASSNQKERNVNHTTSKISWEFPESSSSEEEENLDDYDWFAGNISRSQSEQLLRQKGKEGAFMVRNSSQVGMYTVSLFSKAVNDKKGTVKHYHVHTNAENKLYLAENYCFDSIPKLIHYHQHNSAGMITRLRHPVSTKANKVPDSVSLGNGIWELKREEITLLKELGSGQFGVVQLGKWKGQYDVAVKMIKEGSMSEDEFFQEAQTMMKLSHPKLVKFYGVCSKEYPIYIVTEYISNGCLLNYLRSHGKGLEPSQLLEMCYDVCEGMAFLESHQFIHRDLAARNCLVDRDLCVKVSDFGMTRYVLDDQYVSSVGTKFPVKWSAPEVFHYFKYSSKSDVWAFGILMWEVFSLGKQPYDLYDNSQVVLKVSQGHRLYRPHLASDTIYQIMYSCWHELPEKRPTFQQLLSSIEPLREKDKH
Put plainly: Inhibitory activity against ETK at 25 uM.

Activity calls are given as the source filed them. The calls are words filed in the database; no cut-off is given here.

What is called IC50 is the concentration needed to halve the response being measured. Read a low IC50 as higher potency.

Vascular endothelial growth factor receptor 1 (Homo sapiens), sequence (P17948 whole entry): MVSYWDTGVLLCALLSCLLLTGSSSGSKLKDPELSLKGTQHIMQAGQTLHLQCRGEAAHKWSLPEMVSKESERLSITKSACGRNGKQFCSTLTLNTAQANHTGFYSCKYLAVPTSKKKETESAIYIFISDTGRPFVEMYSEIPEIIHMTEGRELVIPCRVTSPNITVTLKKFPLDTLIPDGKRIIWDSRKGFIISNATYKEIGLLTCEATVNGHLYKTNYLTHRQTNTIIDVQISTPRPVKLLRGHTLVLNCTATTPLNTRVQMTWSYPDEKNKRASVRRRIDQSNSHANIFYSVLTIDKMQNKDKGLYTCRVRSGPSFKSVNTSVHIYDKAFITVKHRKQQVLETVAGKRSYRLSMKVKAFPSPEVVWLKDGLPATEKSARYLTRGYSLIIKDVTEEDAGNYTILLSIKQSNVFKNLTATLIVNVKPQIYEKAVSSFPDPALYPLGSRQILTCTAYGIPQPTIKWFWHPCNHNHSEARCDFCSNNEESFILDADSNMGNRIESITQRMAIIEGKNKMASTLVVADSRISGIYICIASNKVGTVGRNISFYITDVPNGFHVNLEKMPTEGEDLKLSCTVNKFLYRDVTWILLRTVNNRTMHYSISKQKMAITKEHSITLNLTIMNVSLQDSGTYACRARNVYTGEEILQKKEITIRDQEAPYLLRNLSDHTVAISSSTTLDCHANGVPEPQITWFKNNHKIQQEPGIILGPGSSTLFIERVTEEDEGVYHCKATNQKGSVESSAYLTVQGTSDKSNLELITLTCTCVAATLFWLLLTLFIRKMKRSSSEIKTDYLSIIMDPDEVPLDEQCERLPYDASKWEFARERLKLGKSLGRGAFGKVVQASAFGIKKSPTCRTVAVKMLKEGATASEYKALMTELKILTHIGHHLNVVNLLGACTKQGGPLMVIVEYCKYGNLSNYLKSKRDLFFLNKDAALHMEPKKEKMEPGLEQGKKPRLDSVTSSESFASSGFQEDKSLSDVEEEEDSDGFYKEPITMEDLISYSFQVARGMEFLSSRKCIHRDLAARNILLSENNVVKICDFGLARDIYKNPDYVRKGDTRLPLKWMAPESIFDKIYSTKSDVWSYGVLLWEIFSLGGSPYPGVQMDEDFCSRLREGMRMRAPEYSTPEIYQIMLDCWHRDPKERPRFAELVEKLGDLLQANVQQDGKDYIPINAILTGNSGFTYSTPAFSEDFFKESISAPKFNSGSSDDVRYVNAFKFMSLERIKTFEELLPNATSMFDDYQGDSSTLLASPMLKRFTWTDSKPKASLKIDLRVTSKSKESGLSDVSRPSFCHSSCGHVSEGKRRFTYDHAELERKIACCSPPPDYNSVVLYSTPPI
Hepatocyte growth factor receptor (Homo sapiens), sequence (P08581 whole entry): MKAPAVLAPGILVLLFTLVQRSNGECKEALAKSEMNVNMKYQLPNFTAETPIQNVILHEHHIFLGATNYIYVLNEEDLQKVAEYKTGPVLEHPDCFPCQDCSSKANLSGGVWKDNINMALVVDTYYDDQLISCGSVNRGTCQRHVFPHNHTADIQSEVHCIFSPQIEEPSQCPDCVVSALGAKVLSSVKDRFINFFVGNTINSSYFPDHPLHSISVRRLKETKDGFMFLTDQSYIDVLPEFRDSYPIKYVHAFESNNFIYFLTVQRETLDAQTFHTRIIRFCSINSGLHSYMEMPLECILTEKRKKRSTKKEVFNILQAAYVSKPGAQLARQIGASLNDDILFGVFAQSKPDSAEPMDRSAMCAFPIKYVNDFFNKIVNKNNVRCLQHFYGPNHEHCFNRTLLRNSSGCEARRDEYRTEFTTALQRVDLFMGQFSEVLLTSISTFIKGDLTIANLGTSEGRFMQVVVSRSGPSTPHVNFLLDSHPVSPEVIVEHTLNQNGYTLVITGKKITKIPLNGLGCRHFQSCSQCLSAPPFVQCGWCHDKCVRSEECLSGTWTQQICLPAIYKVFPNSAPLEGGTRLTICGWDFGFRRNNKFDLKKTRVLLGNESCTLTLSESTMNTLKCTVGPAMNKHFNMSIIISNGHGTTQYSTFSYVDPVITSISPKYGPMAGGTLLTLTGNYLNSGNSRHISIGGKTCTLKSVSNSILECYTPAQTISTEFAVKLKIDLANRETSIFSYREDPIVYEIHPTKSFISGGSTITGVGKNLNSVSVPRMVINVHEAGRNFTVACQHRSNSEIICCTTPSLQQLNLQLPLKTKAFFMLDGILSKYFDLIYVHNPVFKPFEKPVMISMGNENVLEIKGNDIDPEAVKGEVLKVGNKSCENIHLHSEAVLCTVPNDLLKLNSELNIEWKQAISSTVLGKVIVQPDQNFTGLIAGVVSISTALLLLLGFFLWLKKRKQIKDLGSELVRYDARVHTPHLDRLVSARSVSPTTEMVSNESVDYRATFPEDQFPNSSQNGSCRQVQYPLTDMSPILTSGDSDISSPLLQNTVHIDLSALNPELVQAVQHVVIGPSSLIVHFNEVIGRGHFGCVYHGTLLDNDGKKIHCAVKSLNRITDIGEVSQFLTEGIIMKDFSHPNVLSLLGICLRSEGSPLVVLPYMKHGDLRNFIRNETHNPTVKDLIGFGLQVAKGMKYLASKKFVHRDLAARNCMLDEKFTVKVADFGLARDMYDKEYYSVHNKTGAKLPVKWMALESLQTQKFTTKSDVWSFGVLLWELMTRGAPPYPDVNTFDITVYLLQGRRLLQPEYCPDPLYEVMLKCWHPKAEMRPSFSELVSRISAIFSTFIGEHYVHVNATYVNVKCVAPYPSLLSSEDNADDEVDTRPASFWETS
Epidermal growth factor receptor (Homo sapiens), sequence (P00533 whole entry): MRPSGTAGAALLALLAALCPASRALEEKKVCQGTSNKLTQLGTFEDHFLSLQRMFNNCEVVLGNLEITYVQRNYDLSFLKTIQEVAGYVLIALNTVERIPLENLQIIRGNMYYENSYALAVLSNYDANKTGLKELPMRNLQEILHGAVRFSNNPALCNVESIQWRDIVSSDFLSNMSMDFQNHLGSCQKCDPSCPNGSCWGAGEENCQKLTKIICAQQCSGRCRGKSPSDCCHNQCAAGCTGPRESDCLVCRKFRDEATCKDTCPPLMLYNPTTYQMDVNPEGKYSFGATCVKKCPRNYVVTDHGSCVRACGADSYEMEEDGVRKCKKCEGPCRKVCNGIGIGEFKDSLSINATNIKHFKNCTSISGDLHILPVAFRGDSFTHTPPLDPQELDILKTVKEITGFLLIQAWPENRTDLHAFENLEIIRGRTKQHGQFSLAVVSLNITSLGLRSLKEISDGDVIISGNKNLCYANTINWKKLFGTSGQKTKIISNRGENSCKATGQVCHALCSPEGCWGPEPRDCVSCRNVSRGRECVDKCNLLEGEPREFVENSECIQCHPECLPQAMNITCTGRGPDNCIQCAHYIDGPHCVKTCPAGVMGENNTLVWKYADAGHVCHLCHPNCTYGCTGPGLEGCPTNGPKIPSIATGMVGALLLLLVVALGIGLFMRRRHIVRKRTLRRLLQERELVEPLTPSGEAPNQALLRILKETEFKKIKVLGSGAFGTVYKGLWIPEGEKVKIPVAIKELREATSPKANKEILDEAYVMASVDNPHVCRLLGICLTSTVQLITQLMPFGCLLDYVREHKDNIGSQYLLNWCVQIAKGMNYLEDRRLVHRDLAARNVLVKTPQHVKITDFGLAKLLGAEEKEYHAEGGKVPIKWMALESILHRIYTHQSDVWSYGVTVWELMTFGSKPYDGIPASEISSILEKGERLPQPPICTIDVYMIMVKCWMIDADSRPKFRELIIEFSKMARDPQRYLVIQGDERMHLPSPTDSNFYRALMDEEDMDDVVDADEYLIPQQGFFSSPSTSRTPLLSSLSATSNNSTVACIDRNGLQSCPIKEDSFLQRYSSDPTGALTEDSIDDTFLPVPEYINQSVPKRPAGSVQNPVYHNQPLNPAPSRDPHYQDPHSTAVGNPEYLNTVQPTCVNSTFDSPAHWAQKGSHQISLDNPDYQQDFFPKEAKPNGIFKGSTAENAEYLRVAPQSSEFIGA
Fibroblast growth factor receptor 1 (Homo sapiens), sequence (P11362 22-822 limits assumed): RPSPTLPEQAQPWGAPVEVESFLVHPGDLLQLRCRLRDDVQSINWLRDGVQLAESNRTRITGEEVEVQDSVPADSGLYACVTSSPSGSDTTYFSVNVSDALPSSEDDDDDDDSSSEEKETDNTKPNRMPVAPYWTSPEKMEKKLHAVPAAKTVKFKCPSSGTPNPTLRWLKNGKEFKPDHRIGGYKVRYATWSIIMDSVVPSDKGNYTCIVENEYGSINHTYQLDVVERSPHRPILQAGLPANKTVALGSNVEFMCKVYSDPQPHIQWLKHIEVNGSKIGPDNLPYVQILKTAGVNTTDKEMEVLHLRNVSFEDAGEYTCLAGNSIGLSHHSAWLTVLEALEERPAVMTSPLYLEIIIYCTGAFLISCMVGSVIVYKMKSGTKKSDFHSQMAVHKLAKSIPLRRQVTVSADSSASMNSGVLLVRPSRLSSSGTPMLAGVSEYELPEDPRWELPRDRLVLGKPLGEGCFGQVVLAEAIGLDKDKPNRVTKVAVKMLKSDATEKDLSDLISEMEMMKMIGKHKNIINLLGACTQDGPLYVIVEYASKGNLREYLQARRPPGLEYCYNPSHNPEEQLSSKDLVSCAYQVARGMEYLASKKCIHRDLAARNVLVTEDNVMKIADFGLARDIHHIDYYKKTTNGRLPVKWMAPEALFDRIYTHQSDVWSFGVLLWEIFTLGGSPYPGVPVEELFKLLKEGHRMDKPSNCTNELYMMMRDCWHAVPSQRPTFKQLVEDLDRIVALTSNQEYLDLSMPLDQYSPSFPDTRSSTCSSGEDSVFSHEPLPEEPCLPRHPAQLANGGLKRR

`O=C(Nc1ccc2c(c1)CNc1cnc(Cl)nc1O2)Nc1ccc(Cl)c(C(F)(F)F)c1`: the IC50 in assay [1] is 900 nM. In assay [2], `COc1ccc2c(c1)Oc1ncnc(Nc3cnc(NC(=O)c4ccccc4)nc3)c1NC2` yielded an IC50 of 600 nM.

For the compound `COc1cc2c(cc1OC)Oc1ncnc(Nc3cnc(NC(=O)c4cccc(F)c4)nc3)c1NC2`, in assay [2], the midpoint of inhibition, the IC50, lay at 1100 nM. Still for that read-out and setting: in the case of `COc1cc2c(cc1OC)Oc1ncnc(Nc3cnc(NC(=O)c4ccc(C)cc4)nc3)c1NC2` it was 1200 nM. In assay [2], `COc1ccc2c(c1)Oc1ncnc(Nc3cnc(NC(=O)c4cccc(F)c4)nc3)c1NC2` returned an IC50 of 320 nM. `COc1ccc2c(c1)CNc1c(Nc3cnc(NC(=O)c4ccccc4)nc3)ncnc1O2`: the IC50 in assay [2] was 970 nM. Same read-out and setting: in the case of `COc1cc2c(cc1OC)Oc1ncnc(Nc3cnc(NC(=O)c4ccccc4)nc3)c1NC2` it was 470 nM.

`COc1ccc2c(c1)CNc1c(Nc3cnc(NC(=O)c4cccc(F)c4)nc3)ncnc1O2` returned an IC50 in assay [2] of 1100 nM. For `O=C(Nc1ncc(Nc2ncnc3c2NCc2ccccc2O3)cn1)c1ccccc1`, half-maximal inhibition in assay [2] (IC50) required 1900 nM.

In the case of `COc1cccc2c1CNc1c(Nc3cnc(NC(=O)c4ccccc4)nc3)ncnc1O2`, the IC50 in assay [2] was determined as 2200 nM. In [2], `COc1ccc2c(c1)CNc1c(Nc3cnc(NC(=O)c4ccc(C)cc4)nc3)ncnc1O2` gave an IC50 of 3500 nM. Same read-out and setting: in the case of `COc1ccc2c(c1)Oc1ncnc(Nc3cnc(NC(=O)c4ccc(F)cc4)nc3)c1NC2` it was 330 nM; in that of `COc1cccc2c1Oc1ncnc(Nc3cnc(NC(=O)c4ccccc4)nc3)c1NC2`, > 10000 nM; in that of `Cc1ccc(C(=O)Nc2ncc(Nc3ncnc4c3NCc3ccccc3O4)cn2)cc1`, 3700 nM.

Regarding `CCN(CC)c1ccc2c(c1)Oc1ncnc(Nc3cnc(NC(=O)c4ccccc4)nc3)c1NC2`, the IC50 in [2] was determined as 5000 nM. `O=C(Nc1ccc2c(c1)CNc1c(Cl)ncnc1O2)Nc1ccc(Cl)c(C(F)(F)F)c1` came in with an IC50 in assay [1] of 13700 nM.

On to `O=C(Nc1ccc2c(c1)C=Nc1c(Cl)ncnc1O2)Nc1ccc(Cl)c(C(F)(F)F)c1`, for which the IC50 in assay [3] came out at 9500 nM; in assay [9], 9500 nM; in assay [1], 450 nM. The result in assay [4], in assay [5], in [6], in assay [7], in assay [8] and in assay [10] was inactive.
